Laboratory results: patent US4335249A, “Herbicidal diphenyl ethers, sulfides, sulfoxides and sulfones” (Rohm and Haas Company, priority 1976, dated 1982)

How the values were obtained:
Type in all cases: in vivo
[1] = system: barnyardgrass (Echinochloa crusgalli); experiment: Postemergence herbicidal activity, barnyardgrass; settings: Echinochloa crus-galli, post-emergence, 336 h; Post, 2 lb/A
Description: (§1) Using the procedure described below, compounds of the invention are evaluated for control of several of the following plant species:
(§2) The following est procedure is employed. Seeds of selected crops and weeds are planted in soil in flats. For preemergence tests, the flats are treated with the test compound immediately after the planting. For postemergence tests, the seeds are allowed to germinate, and after two weeks the flats are treated with the test compound. The compound to be evaluated is dissolved in acetone, diluted with water, and sprayed over the flats using a carrier volume equivalent to 50 gallons per acre at the rate of application (pounds per acre, lb/A.) specified in the tables.

[2] = system: tomato (Lycopersicon esculentum); experiment: Postemergence herbicidal activity, tomato; settings: Solanum lycopersicum, post-emergence, 336 h, Post, 2 lb/A
Description: as §1
as §2, with “tables. About two weeks after the application of the test compound, the state of growth of the plants is observed and the phytotoxic effect of the compound is evaluated. Tables III and IV give the average percent control achieved by test compounds in terms of the percent of the plants which are killed by the compounds.” for “tables.”

[3] = system: morningglory (Ipomoca spp.); experiment: Preemergence herbicidal activity, morningglory; settings: Ipomoea, pre-emergence, 336 h, 2 lb/A
Description: as §1
as §2, with “tables. About two weeks after the application of the test compound, the state of growth of the plants is observed and the phytotoxic effect of the compound is evaluated. Tables III and IV give the average percent control achieved by test compounds in terms of the percent of the plants which are killed by the compounds.” for “tables.”

foxtail (Setaria spp.) [4] = experiment: Preemergence herbicidal activity, foxtail; settings: Setaria, pre-emergence, 336 h; Pre, 2 lb/A
Description: as §1
as §2, with “tables. About two weeks after the application of the test compound, the state of growth of the plants is observed and the phytotoxic effect of the compound is evaluated. Tables III and IV give the average percent control achieved by test compounds in terms of the percent of the plants which are killed by the compounds.” for “tables.”

[5] = system: tomato (Lycopersicon esculentum); experiment: Preemergence herbicidal activity, tomato; settings: Solanum lycopersicum, pre-emergence, 336 h; Pre, 2 lb/A
Description: as §1
as §2, with “tables. About two weeks after the application of the test compound, the state of growth of the plants is observed and the phytotoxic effect of the compound is evaluated. Tables III and IV give the average percent control achieved by test compounds in terms of the percent of the plants which are killed by the compounds.” for “tables.”

[6] = system: downybrome (Bromus tectorum); experiment: Preemergence herbicidal activity, downybrome; settings: Bromus tectorum, pre-emergence, 336 h, Pre, 2 lb/A
Description: as §1
as §2, with “tables. About two weeks after the application of the test compound, the state of growth of the plants is observed and the phytotoxic effect of the compound is evaluated. Tables III and IV give the average percent control achieved by test compounds in terms of the percent of the plants which are killed by the compounds.” for “tables.”

[7] = system: yellow nutsedge (Cyperus esculentus); experiment: Preemergence herbicidal activity, yellow nutsedge; settings: Cyperus, pre-emergence, 336 h, 2 lb/A
Description: as §1
as §2, with “tables. About two weeks after the application of the test compound, the state of growth of the plants is observed and the phytotoxic effect of the compound is evaluated. Tables III and IV give the average percent control achieved by test compounds in terms of the percent of the plants which are killed by the compounds.” for “tables.”

[8] = system: yellow nutsedge (Cyperus esculentus); experiment: Postemergence herbicidal activity, yellow nutsedge; settings: Cyperus, post-emergence, 336 h, 2 lb/A
Description: as §1
as §2, with “tables. About two weeks after the application of the test compound, the state of growth of the plants is observed and the phytotoxic effect of the compound is evaluated. Tables III and IV give the average percent control achieved by test compounds in terms of the percent of the plants which are killed by the compounds.” for “tables.”

[9] = system: barnyardgrass (Echinochloa crusgalli); experiment: Preemergence herbicidal activity, barnyardgrass; settings: Echinochloa crus-galli, pre-emergence, 336 h; Pre, 2 lb/A
Description: as §1, §2

foxtail (Setaria spp.) [10] = experiment: Postemergence herbicidal activity, foxtail; settings: Setaria, post-emergence, 336 h, Post, 2 lb/A
Description: as §1
as §2, with “tables. About two weeks after the application of the test compound, the state of growth of the plants is observed and the phytotoxic effect of the compound is evaluated. Tables III and IV give the average percent control achieved by test compounds in terms of the percent of the plants which are killed by the compounds.” for “tables.”

[11] = system: downybrome (Bromus tectorum); experiment: Postemergence herbicidal activity, downybrome; settings: Bromus tectorum, post-emergence, 336 h, Post, 2 lb/A
Description: as §1
as §2, with “tables. About two weeks after the application of the test compound, the state of growth of the plants is observed and the phytotoxic effect of the compound is evaluated. Tables III and IV give the average percent control achieved by test compounds in terms of the percent of the plants which are killed by the compounds.” for “tables.”

[12] = system: velvetleaf (Abutilon theophrasti); experiment: Postemergence herbicidal activity, velvetleaf; settings: Abutilon theophrasti, post-emergence, 336 h, 2 lb/A
Description: as §1, §2

[13] = system: morningglory (Ipomoca spp.); experiment: Postemergence herbicidal activity, morningglory; settings: Ipomoea, post-emergence, 336 h, 2 lb/A
Description: as §1
as §2, with “tables. About two weeks after the application of the test compound, the state of growth of the plants is observed and the phytotoxic effect of the compound is evaluated. Tables III and IV give the average percent control achieved by test compounds in terms of the percent of the plants which are killed by the compounds.” for “tables.”

wild oats (Avena fatua) [14] = experiment: Postemergence herbicidal activity, wild oats; settings: Avena fatua, post-emergence, 336 h, Post, 2 lb/A; read-out: % control, Wild oat
Description: as §1
as §2, with “tables. About two weeks after the application of the test compound, the state of growth of the plants is observed and the phytotoxic effect of the compound is evaluated. Tables III and IV give the average percent control achieved by test compounds in terms of the percent of the plants which are killed by the compounds.” for “tables.”

marigold (Tagetes spp.) [15] = experiment: Preemergence herbicidal activity, marigold; settings: pre-emergence, 336 h, 2 lb/A
Description: as §1
as §2, with “tables. About two weeks after the application of the test compound, the state of growth of the plants is observed and the phytotoxic effect of the compound is evaluated. Tables III and IV give the average percent control achieved by test compounds in terms of the percent of the plants which are killed by the compounds.” for “tables.”

marigold (Tagetes spp.) [16] = experiment: Postemergence herbicidal activity, marigold; settings: post-emergence, 336 h, 2 lb/A
Description: as §1
as §2, with “tables. About two weeks after the application of the test compound, the state of growth of the plants is observed and the phytotoxic effect of the compound is evaluated. Tables III and IV give the average percent control achieved by test compounds in terms of the percent of the plants which are killed by the compounds.” for “tables.”

wild oats (Avena fatua) [17] = experiment: Preemergence herbicidal activity, wild oats; settings: Avena fatua, pre-emergence, 336 h, Pre, 2 lb/A; read-out: % control, Wild oat
Description: as §1
as §2, with “tables. About two weeks after the application of the test compound, the state of growth of the plants is observed and the phytotoxic effect of the compound is evaluated. Tables III and IV give the average percent control achieved by test compounds in terms of the percent of the plants which are killed by the compounds.” for “tables.”

[18] = system: cocklebur (Xanthium pensylvanicum); experiment: Postemergence herbicidal activity, cocklebur; settings: Xanthium strumarium, post-emergence, 336 h, 2 lb/A
Description: as §1
as §2, with “tables. About two weeks after the application of the test compound, the state of growth of the plants is observed and the phytotoxic effect of the compound is evaluated. Tables III and IV give the average percent control achieved by test compounds in terms of the percent of the plants which are killed by the compounds.” for “tables.”

[19] = system: cocklebur (Xanthium pensylvanicum); experiment: Preemergence herbicidal activity, cocklebur; settings: Xanthium strumarium, pre-emergence, 336 h, 2 lb/A
Description: as §1
as §2, with “tables. About two weeks after the application of the test compound, the state of growth of the plants is observed and the phytotoxic effect of the compound is evaluated. Tables III and IV give the average percent control achieved by test compounds in terms of the percent of the plants which are killed by the compounds.” for “tables.”

[20] = system: velvetleaf (Abutilon theophrasti); experiment: Preemergence herbicidal activity, velvetleaf; settings: Abutilon theophrasti, pre-emergence, 336 h; Pre, 2 lb/A
Description: as §1
as §2, with “tables. About two weeks after the application of the test compound, the state of growth of the plants is observed and the phytotoxic effect of the compound is evaluated. Tables III and IV give the average percent control achieved by test compounds in terms of the percent of the plants which are killed by the compounds.” for “tables.”

SMILES | pest or weed control at 2241.7 g/ha [1] | pest or weed control at 2241.7 g/ha [2] | pest or weed control at 2241.7 g/ha [3] | pest or weed control at 2241.7 g/ha (foxtail (Setaria spp.) [4]) | pest or weed control at 2241.7 g/ha [5] | pest or weed control at 2241.7 g/ha [6] | pest or weed control at 2241.7 g/ha [7] | pest or weed control at 2241.7 g/ha [8] | pest or weed control at 2241.7 g/ha [9] | pest or weed control at 2241.7 g/ha (foxtail (Setaria spp.) [10]) | pest or weed control at 2241.7 g/ha [11] | pest or weed control at 2241.7 g/ha [12] | pest or weed control at 2241.7 g/ha [13] | pest or weed control at 2241.7 g/ha (wild oats (Avena fatua) [14]) | pest or weed control at 2241.7 g/ha (marigold (Tagetes spp.) [15]) | pest or weed control at 2241.7 g/ha (marigold (Tagetes spp.) [16]) | pest or weed control at 2241.7 g/ha (wild oats (Avena fatua) [17]) | pest or weed control at 2241.7 g/ha [18] | pest or weed control at 2241.7 g/ha [19] | pest or weed control at 2241.7 g/ha [20]
CC(C#N)Oc1ccc(Oc2ccc(C(F)(F)F)cc2)cc1 (stereo not drawn) [Example 41, 2-[4-(4-trifluoromethylphenoxy)phenoxy] propionitrile] | 100% | 0% | 0% | 100% | 0% | 80% | 0% | 0% | 99% | 60% | 40% | 0% | 0% | 99% | 0% | 0% | 70% | 0% | 0% | 0%
CC(Oc1ccc(Oc2ccc(C(F)(F)F)cc2Cl)cc1)C(N)=O (stereo not drawn) [Example 18] | 99% | 0% | 0% | 100% | 0% | 95% | 0% | 0% | 100% | 99% | 40% | 0% | 0% | 95% | 0% | 0% | 0% | 0% | 0% | 0%
CCOC(=O)C(C)Oc1ccc(Sc2ccc(C(F)(F)F)cc2Cl)cc1 (stereo not drawn) [Example 3, Ethyl 2-[4-(2-Chloro-4-trifluoromethylphenylthio)phenoxy] propionate] | 70% | 70% | 0% | 100% | 0% | 40% | 0% | 66% | 95% | 100% | 90% | 70% | 50% | 99% | 0% | 50% | 30% | 20% | 0% | 0%
